Consider 14 compounds from PubChem BioAssay (NCI).

Holding throughout (experiment): DTP human tumour cell line panel, 48 h
The test system of test [1] is EKVX NSCLC.
The test system of test [2] is MALME-3M melanoma.
Test [3] relates to NCI-H23 lung.
For test [4], the system named is RPMI-8226 leukemia.
Test [5] relates to SF-295 CNS.
Test [6] concerns CAKI-1 renal.
Test [7] concerns SK-OV-3 ovarian.
In test [8] the test system is MDA-MB-231 breast.
The subject of test [9] is PC-3 prostate.

The term TGI denotes the concentration at which net growth stops. In general, GI50 refers to the concentration that inhibits growth by half.

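Results reflect a 48-hour exposure of cells in 96-well plates to compound at five concentrations. At the GI50, growth is halved. TGI: total growth inhibition.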

For the compound `N#CC(/C(=N/NC(=O)C(=O)NN)C(=O)Nc1nc([N+](=O)[O-])cs1)c1ccc(Cl)cc1` (configuration not stated), the TGI in test [1], in test [2], in test [3], in test [4] and in [5] was over 100 µM each time.

For `CC(=O)Oc1cc(C)c2c(c1OC(C)=O)CC1(O2)[C@@H](C)CCC2[C@@]3(C)CC[C@H](OC(C)=O)C(C)(C)C3CC[C@]21C` (some centres not stated), the TGI was 4.3 µM in test [6]; 11.4 µM in [1]; 11.5 µM in test [3]; over 100 µM in [4]; 16.2 µM in test [5]; 25.5 µM in test [7].

Take `COC(c1cccc(C(O)(C(F)(F)F)C(F)(F)F)c1)(C(F)(F)F)C(F)(F)F`: the TGI in [6] came to 39.7 µM; in test [1], 33.3 µM; in test [2], 35.3 µM; in [3] it was 35.3 µM; in test [5] it was 30.2 µM; in test [7], 34.4 µM.

For `CSc1cccc(-n2c3nc(=O)n(C)c(=O)c-3nc3ccccc32)c1`, the TGI was determined as 19.7 µM in test [6]; 36.6 µM in test [1]; 11.4 µM in [2]; 70.3 µM in test [3]; 26.2 µM in test [4]; 23.6 µM in test [5]. The compound also had a TGI in test [7] of 96 µM.

`CCCCCCCC(=O)NCC(O)CNC(=O)CCCCCCC`: the TGI in test [6], in [1], in test [2], in test [3], in [4] and in test [5] was over 100 µM throughout. The compound also returned a TGI in test [7] of over 100 µM.

With `Nc1nc2sc3ccccc3c(=O)n2n1`, the TGI in [6], in test [1], in [2], in test [3], in test [4] and in test [5] was over 100 µM in each case. Further, the TGI in test [7] is over 100 µM.

For the compound `CCN(CC)CCCn1cnc2ncccc2c1=O`, the TGI in test [6], in [1], in test [2], in test [3], in test [5] and in test [7] was over 100 µM each time.

For `CC(=O)N1c2ccccc2C2=CC3C4C(=O)N(c5ccccc5)C(=O)C4C21C1C(=O)N(c2ccccc2)C(=O)C31` (configuration not stated), the TGI was over 100 µM in test [6]; over 100 µM in test [2]; over 100 µM in test [3]; 39.1 µM in test [5]; over 100 µM in test [7].

As for `Cc1noc2cccc(OCc3ccccc3)c12`, the TGI in [6], in test [1], in test [2], in test [3], in test [4] and in [5] was over 100 µM throughout. The same compound registered a TGI in test [7] of over 100 µM.

With `COc1ccc2c(c1)C(=O)N1CCOC1C2C(=O)O` (configuration not stated), the TGI in [6] was over 100 µM; in [1], over 100 µM; in test [3] it was over 100 µM; in [4], over 100 µM; in [5] it was 29.8 µM; in [7], over 100 µM.

As for `O=C(O)C1=CCCc2ccc3ccccc3c21`, the TGI in test [1], in test [2], in [3], in [4], in test [5] and in [7] was over 100 µM throughout.

As for `[Cl][Sn]([Cl])([c]1ccccc1)[c]1ccccc1`, the GI50 is 2.29 µM in test [6]; 17.8 µM in test [1]; 2.68 µM in test [2]; 10.4 µM in test [3]; 2.71 µM in [4]; 17 µM in test [5]. Further, the GI50 in [7] was 17.4 µM. Also, the TGI stood at 6.52 µM in test [6]; 32.1 µM in test [1]; 8.01 µM in [2]; 24 µM in test [3]; 18 µM in test [4]; 33.5 µM in [5]. This compound gave a TGI in test [7] of 31.6 µM.

`N#C/C(=N\Nc1ccc(Cl)cc1)C(=O)Nc1cc(-c2ccccc2)nn1-c1ccccc1`: the GI50 is 2.64 µM in test [1]; 2.86 µM in test [8]; 2.65 µM in [3]; 2.4 µM in [9]; 1.77 µM in test [4]; 2.86 µM in test [5]. The GI50 in [7] is 2.28 µM. The TGI in test [1] was over 100 µM; in test [8] it was over 100 µM; in test [3], over 100 µM; in test [9], over 100 µM; in [4], 6.67 µM; in test [5], over 100 µM. For the same compound, in [7], the TGI was found to be 6.66 µM.

As to `CCOC(=O)c1c(-c2ccccc2)oc(-c2ccccc2)c1C(=O)OCC`, the TGI in test [1], in test [2], in [3], in [4], in test [5] and in [7] was over 100 µM each time.
